Results published in patent publication US20240270762A1, “PENICILLIN-BINDING PROTEIN INHIBITORS” (priority 2021, published 2024).
Converted amounts (≈) assume the structure as drawn. Like-named read-outs stand apart in the source and are kept apart here.

Key:
A. baumannii PBP1a = molecular target: T1, A. baumannii PBP1a (Acinetobacter baumannii, UniProt A0ABX6CK30); assay: Bocillin-FL competition binding via gel filtration, A. baumannii PBP1a
T1 sequence (A0ABX6CK30 1-851): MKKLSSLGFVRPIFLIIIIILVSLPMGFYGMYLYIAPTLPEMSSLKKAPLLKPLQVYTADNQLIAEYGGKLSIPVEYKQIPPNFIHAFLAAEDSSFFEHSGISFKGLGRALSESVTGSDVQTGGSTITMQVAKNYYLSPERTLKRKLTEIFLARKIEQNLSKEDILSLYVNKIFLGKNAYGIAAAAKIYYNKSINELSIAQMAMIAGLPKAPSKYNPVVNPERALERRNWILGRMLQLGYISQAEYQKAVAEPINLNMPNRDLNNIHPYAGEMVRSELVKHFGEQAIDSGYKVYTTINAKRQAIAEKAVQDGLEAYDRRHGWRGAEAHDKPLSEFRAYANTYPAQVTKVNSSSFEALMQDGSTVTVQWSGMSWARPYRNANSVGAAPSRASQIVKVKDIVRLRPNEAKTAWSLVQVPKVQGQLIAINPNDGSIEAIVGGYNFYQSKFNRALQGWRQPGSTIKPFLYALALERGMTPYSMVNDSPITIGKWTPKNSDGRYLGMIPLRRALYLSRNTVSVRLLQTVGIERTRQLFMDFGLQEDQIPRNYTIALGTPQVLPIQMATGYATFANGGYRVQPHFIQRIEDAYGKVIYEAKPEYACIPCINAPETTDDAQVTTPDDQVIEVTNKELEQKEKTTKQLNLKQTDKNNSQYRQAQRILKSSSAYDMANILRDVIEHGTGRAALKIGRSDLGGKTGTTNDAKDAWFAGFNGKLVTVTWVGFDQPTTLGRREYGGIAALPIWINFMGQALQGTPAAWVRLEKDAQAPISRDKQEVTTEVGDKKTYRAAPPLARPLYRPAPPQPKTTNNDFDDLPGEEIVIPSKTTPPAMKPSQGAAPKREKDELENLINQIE
Method in brief: (§1)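 Competitive equilibrium binding with Bocillin-FL reporter: PBP pre-incubated with inhibitor dilutions, Bocillin-FL added, 15 min incubation. Labelled enzyme isolated by size-exclusion spin plates, fluorescence measured; EC50 obtained by fitting bound fraction against inhibitor concentration with a Hill-coefficient model.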

P. aeruginosa ATCC 27853 = assay: microbe, parasite or virus in culture; format: cell-based; settings: Pseudomonas aeruginosa, ATCC27853, read-out: Minimum inhibitory concentration, P. aeruginosa ATCC 27853
A. baumannii CDC-0045 = assay: microbe, parasite or virus in culture; format: cell-based; settings: Acinetobacter baumannii, CDC0045, read-out: Minimum inhibitory concentration (MIC), A. baumannii CDC-0045
P. aeruginosa CDC-0110 = assay: microbe, parasite or virus in culture; format: cell-based; settings: Pseudomonas aeruginosa, CDC0110, read-out: Minimum inhibitory concentration, P. aeruginosa CDC-0110
[1] = tested on: B. humptydooensis ATCC BAA-2767; assay: microbe, parasite or virus in culture; format: cell-based; settings: Burkholderia humptydooensis, ATCCBAA2767, read-out: Minimum inhibitory concentration (MIC), B. humptydooensis ATCC BAA-2767
A. baumannii ATCC 19606 = assay: microbe, parasite or virus in culture; format: cell-based; settings: Acinetobacter baumannii, ATCC19606, read-out: Minimum inhibitory concentration (MIC), A. baumannii ATCC 19606
A. baumannii PBP2 = A. baumannii PBP2 (Acinetobacter baumannii, UniProt D0C8Z9); assay: Bocillin-FL competition binding via gel filtration, A. baumannii PBP2
Method in brief: as §1

A. baumannii ATCC 17978 = assay: microbe, parasite or virus in culture; format: cell-based; settings: Acinetobacter baumannii, ATCC17978, read-out: Minimum inhibitory concentration (MIC), A. baumannii ATCC 17978
[2] = tested on: B. thailandensis ATCC 700388; assay: microbe, parasite or virus in culture; format: cell-based; settings: Burkholderia thailandensis, ATCC700388, read-out: Minimum inhibitory concentration (MIC), B. thailandensis ATCC 700388
P. aeruginosa CDC-0054 = assay: microbe, parasite or virus in culture; format: cell-based; settings: Pseudomonas aeruginosa, CDC0054, read-out: Minimum inhibitory concentration, P. aeruginosa CDC-0054
P. aeruginosa CDC-0090 = assay: microbe, parasite or virus in culture; format: cell-based; settings: Pseudomonas aeruginosa, CDC0090, read-out: Minimum inhibitory concentration, P. aeruginosa CDC-0090
[3] = competition binding assay using Bocillin-FL via gel filtration, read-out: A. baumannii PBP1a Potency

Chain of A. baumannii PBP2 (D0C8Z9 whole entry): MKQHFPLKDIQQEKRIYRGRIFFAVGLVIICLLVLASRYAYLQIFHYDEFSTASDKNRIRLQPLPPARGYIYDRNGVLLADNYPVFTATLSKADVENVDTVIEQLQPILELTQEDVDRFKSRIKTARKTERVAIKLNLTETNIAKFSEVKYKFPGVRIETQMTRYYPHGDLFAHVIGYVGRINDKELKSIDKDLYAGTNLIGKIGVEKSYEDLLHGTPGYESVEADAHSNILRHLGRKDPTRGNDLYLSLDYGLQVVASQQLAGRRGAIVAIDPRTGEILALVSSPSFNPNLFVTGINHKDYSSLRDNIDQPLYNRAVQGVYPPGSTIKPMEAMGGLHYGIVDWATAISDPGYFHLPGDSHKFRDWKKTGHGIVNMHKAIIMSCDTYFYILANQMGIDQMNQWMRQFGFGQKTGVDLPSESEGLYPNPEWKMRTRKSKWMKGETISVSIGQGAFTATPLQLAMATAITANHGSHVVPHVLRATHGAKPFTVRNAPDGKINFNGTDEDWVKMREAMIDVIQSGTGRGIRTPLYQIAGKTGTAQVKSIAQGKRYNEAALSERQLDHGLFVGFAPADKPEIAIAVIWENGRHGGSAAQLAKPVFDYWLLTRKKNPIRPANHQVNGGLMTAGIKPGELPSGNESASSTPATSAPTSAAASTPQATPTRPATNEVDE

Row | Structure (SMILES) | EC50 (A. baumannii PBP1a; [3]) [µM] | MIC (P. aeruginosa ATCC 27853) [µg/mL] | MIC (A. baumannii CDC-0045) [µg/mL] | MIC (P. aeruginosa CDC-0110) [µg/mL] | MIC [1] [µg/mL] | MIC (A. baumannii ATCC 19606) [µg/mL] | EC50 (A. baumannii PBP2) [µM] | MIC (A. baumannii ATCC 17978) [µg/mL] | MIC [2] [µg/mL] | MIC (P. aeruginosa CDC-0054) [µg/mL] | MIC (P. aeruginosa CDC-0090) [µg/mL] | EC50 (A. baumannii PBP1a) [µM]
1 | O=C(O)c1c(F)ccc2c1OB(O)[C@@H](NC(=O)[C@H](NC(=O)N1CCN(C3CCN(C(=O)c4cc(F)c(O)c(O)c4Cl)CC3)C1=O)c1ccc(P(=O)(O)O)cc1)C2 (single isomer, unassigned) [Example 495] | < 10 | < 1 | < 1 | < 1 | < 1 | < 1 | < 10 | < 1 | < 1 | < 1 | < 1 | 
2 | O=C(O)c1c(F)ccc2c1OB(O)[C@@H](NC(=O)[C@H](NC(=O)N1CCN(C3CCN(C(=O)Nc4ccc(O)c(O)c4Cl)CC3)C1=O)c1ccc(P(=O)(O)O)cc1)C2 (single isomer, unassigned) [Example 497] | < 10 | 2 to 4 (≈ 2.44 to 4.88 µM) | < 1 | < 1 | < 1 | < 1 | < 10 | < 1 | < 1 | < 1 | 8 to 16 (≈ 9.77 to 19.5 µM) | 
3 | O=C(O)c1c(F)ccc2c1OB(O)[C@@H](NC(=O)[C@H](NC(=O)N1CCN(C3CCN(C(=O)Nc4cc(F)c(O)c(O)c4Cl)CC3)C1=O)c1ccc(P(=O)(O)O)cc1)C2 (single isomer, unassigned) [Example 500] | < 10 | < 1 | < 1 | < 1 | < 1 | < 1 | < 10 | < 1 | < 1 | < 1 | 2 to 4 (≈ 2.39 to 4.78 µM) | 
4 | O=C(O)c1c(F)ccc2c1OB(O)[C@@H](NC(=O)C(NC(=O)N1CCN(C3CCN(C(=O)Nc4c(F)ccc(O)c4F)CC3)C(=O)C1=O)c1cc(F)c(O)c(O)c1Cl)C2 (stereo partly drawn) [Example 487, (3R)-3-(2-(2-chloro-5-fluoro-3,4-dihydroxyphenyl)-2-(4-(1-((2,6-difluoro-3-hydroxyphenyl)carbamoyl)piperidin-4-yl)-2,3-dioxopiperazine-1-carboxamido)acetamido)-7-fluoro-2-hydroxy-3,4-dihydro-2H-benzo[e][1,2]oxaborinine-8-carboxylic acid] | 10 to 50 | < 1 | < 1 | < 1 | 2 to 4 (≈ 2.39 to 4.78 µM) | < 1 | < 10 | < 1 | < 1 | < 1 | 2 to 4 (≈ 2.39 to 4.78 µM) | 
5 | O=C(O)c1c(F)ccc2c1OB(O)[C@@H](NC(=O)C(NC(=O)N1CCN(C3CCN(C(=O)Nc4cc(O)c(F)c(F)c4)CC3)C(=O)C1=O)c1cc(F)c(O)c(O)c1Cl)C2 (stereo partly drawn) [Example 488, (3R)-3-(2-(2-chloro-5-fluoro-3,4-dihydroxyphenyl)-2-(4-(1-((3,4-difluoro-5-hydroxyphenyl)carbamoyl)piperidin-4-yl)-2,3-dioxopiperazine-1-carboxamido)acetamido)-7-fluoro-2-hydroxy-3,4-dihydro-2H-benzo[e][1,2]oxaborinine-8-carboxylic acid] | < 10 | 2 to 4 (≈ 2.39 to 4.78 µM) | < 1 | < 1 | > 128 | < 1 | 10 to 50 | < 1 | 8 to 16 (≈ 9.56 to 19.1 µM) | < 1 | < 1 | 
6 | O=C(O)c1c(F)ccc2c1OB(O)[C@@H](NC(=O)C(NC(=O)N1CCN(C3CCN(C(=O)Nc4ccc(Cl)c(O)c4F)CC3)C(=O)C1=O)c1cc(F)c(O)c(O)c1Cl)C2 (stereo partly drawn) [Example 489, (3R)-3-(2-(4-(1-((4-chloro-2-fluoro-3-hydroxyphenyl)carbamoyl)piperidin-4-yl)-2,3-dioxopiperazine-1-carboxamido)-2-(2-chloro-5-fluoro-3,4-dihydroxyphenyl)acetamido)-7-fluoro-2-hydroxy-3,4-dihydro-2H-benzo[e][1,2]oxaborinine-8-carboxylic acid] | < 10 | 2 to 4 (≈ 2.34 to 4.69 µM) | < 1 | 2 to 4 (≈ 2.34 to 4.69 µM) | 32 to 64 (≈ 37.5 to 75 µM) | < 1 | < 10 | < 1 | 2 to 4 (≈ 2.34 to 4.69 µM) | < 1 | 2 to 4 (≈ 2.34 to 4.69 µM) | 
7 | O=C(O)c1c(F)ccc2c1OB(O)[C@@H](NC(=O)C(NC(=O)N1CCN(C3CCN(C(=O)Nc4cc(O)c(F)cc4Cl)CC3)C(=O)C1=O)c1cc(F)c(O)c(O)c1Cl)C2 (stereo partly drawn) [Example 490, (3R)-3-(2-(4-(1-((2-chloro-4-fluoro-5-hydroxyphenyl)carbamoyl)piperidin-4-yl)-2,3-dioxopiperazine-1-carboxamido)-2-(2-chloro-5-fluoro-3,4-dihydroxyphenyl)acetamido)-7-fluoro-2-hydroxy-3,4-dihydro-2H-benzo[e][1,2]oxaborinine-8-carboxylic acid] | < 10 | 2 to 4 (≈ 2.34 to 4.69 µM) | < 1 | 2 to 4 (≈ 2.34 to 4.69 µM) | > 128 | < 1 | 10 to 50 | < 1 | 32 to 64 (≈ 37.5 to 75 µM) | 8 to 16 (≈ 9.37 to 18.7 µM) | 2 to 4 (≈ 2.34 to 4.69 µM) | 
8 | O=C(O)c1c(F)ccc2c1OB(O)[C@@H](NC(=O)[C@H](NC(=O)N1CCN(C3CCN(C(=O)Nc4cc(F)c(F)c(O)c4F)CC3)C(=O)C1=O)c1cc(F)c(O)c(O)c1Cl)C2 [Example 491, (R)-3-((R)-2-(2-chloro-5-fluoro-3,4-dihydroxyphenyl)-2-(2,3-dioxo-4-(1-((2,4,5-trifluoro-3-hydroxyphenyl)carbamoyl)piperidin-4-yl)piperazine-1-carboxamido)acetamido)-7-fluoro-2-hydroxy-3,4-dihydro-2H-benzo[e][1,2]oxaborinine-8-carboxylic acid] | < 10 | 2 to 4 (≈ 2.34 to 4.68 µM) | < 1 | < 1 | 8 to 16 (≈ 9.36 to 18.7 µM) | < 1 | < 10 | < 1 | 2 to 4 (≈ 2.34 to 4.68 µM) | < 1 | 2 to 4 (≈ 2.34 to 4.68 µM) | 
9 | O=C(O)c1c(F)ccc2c1OB(O)[C@@H](NC(=O)[C@H](NC(=O)N1CCN(C3CCN(Cc4cccnc4)CC3)C1=O)c1cc(F)c(O)c(O)c1Cl)C2 [Example 492, (R)-3-((R)-2-(2-chloro-5-fluoro-3,4-dihydroxyphenyl)-2-(2-oxo-3-(1-(pyridin-3-ylmethyl)piperidin-4-yl)imidazolidine-1-carboxamido)acetamido)-7-fluoro-2-hydroxy-3,4-dihydro-2H-benzo[e][1,2]oxaborinine-8-carboxylic acid] |  | < 1 | < 1 | < 1 | < 1 | < 1 | 10 to 50 | < 1 | < 1 | < 1 | < 1 | < 10
10 | O=C(O)c1c(F)ccc2c1OB(O)[C@@H](NC(=O)[C@H](NC(=O)N1CCN(C3CCN(Cc4ccncc4)CC3)C1=O)c1cc(F)c(O)c(O)c1Cl)C2 [Example 493, (R)-3-((R)-2-(2-chloro-5-fluoro-3,4-dihydroxyphenyl)-2-(2-oxo-3-(1-(pyridin-4-ylmethyl)piperidin-4-yl)imidazolidine-1-carboxamido)acetamido)-7-fluoro-2-hydroxy-3,4-dihydro-2H-benzo[e][1,2]oxaborinine-8-carboxylic acid] | < 10 | 2 to 4 (≈ 2.74 to 5.49 µM) | < 1 | < 1 | < 1 | < 1 | 10 to 50 | < 1 | < 1 | 2 to 4 (≈ 2.74 to 5.49 µM) | < 1 | 
